Data from patent US20230116114A1, “COMPOUNDS AND COMPOSITIONS FOR TREATING CNS DISORDERS” (Blue Oak Pharmaceuticals, Inc., priority 2020, published 2023).
Where a name gives a salt, the structure may show the parent alone.

System: mice
Test: SmartCube in vivo neuropharmacological behavioral assay
Settings: for minimal effective dose: Mus musculus, ip, 0.25 h, dose having 50% or more total activity in SmartCube, i.p., read-out: MED (minimal effective dose); for AD: antidepressant (percent probability) / AG: analgesic (percent probability) / AP: antipsychotic (percent probability) / AX: anxiolytic (percent probability) / CE: cognitive enhancer (percent probability) / HA: hallucinogenic (percent probability) / MS: mood stabilizer (percent probability) / PS (percent probability) / SD: sedative hypnotic (percent probability) / SE: side effects (percent probability) / UN: uncharacterized CNS activity (percent probability) / XG: anxiogenic (percent probability): SmartCube, i.p. 15 min before test, result at the MED
Experimental: The compounds were evaluated for their CNS related properties (e.g., the treatment, prevention or diagnosis of CNS or CNS-related disorders and/or amelioration of symptoms) using neuropharmacological screening methods described in S. L. Roberts et al., Front. Neurosci. 2011, 5:103 (hereinafter referred to as “Roberts,” the contents of which are incorporated herein by reference in their entirety).
According to Roberts, intact systems are useful in detecting improvement in disease-relevant endpoints, because psychiatric diseases generally result from disorders of cell-cell communication or circuitry. The endpoints are typically behavioral in nature, often requiring human observation and interpretation. In order to test multiple compounds for behavioral effects relevant to neurological and psychiatric diseases and disorders, PsychoGenics, Inc. (Paramus, N.J. “PGI”) developed SmartCube®, an automated system in which behaviors of compound-treated mice are captured by digital video and analyzed with computer algorithms to facilitate testing of multiple compounds for behavioral effects relevant to psychiatric disease. (D. Brunner et al., Drug Discov. Today 2002, 7:S107-S112; Alexandrov et al., Eur. J. Pharmacol. 2015, 753:127-134; the contents of each of which are incorporated herein by reference in their entirety).
The SmartCube® system is described in Example 2.2 of U.S. Pat. No. 9,758,529 and Example 289 of WIPO Publication No. WO2018/023070, the contents of each of which are incorporated herein by reference in their entirety.
According to the present disclosure, compounds identified may be evaluated using the SmartCube® system. The results of such analysis correlate certain patterns or combinations of behaviors to CNS effects along a percent probability scale of 0-100 where zero (0) reflects the limit of quantitation (LOQ).
The compounds of the present disclosure were evaluated for their CNS related properties (e.g., the treatment, prevention or diagnosis of CNS or CNS-related disorders and/or amelioration of symptoms) using neuropharmacological screening methods described in S. L. Roberts et al., Front. Neurosci. 2011, 5:103 (hereinafter referred to as “Roberts,” the contents of which are incorporated herein by reference in their entirety).
The SmartCube® system described herein was utilized to compare the behavioral signature of a test compound to a database of behavioral signatures obtained using a large set of diverse reference compounds (including but not limited to antipsychotics, anxiolytics, antidepressants and bipolar disorder medicine), thereby predicting the neuropharmacological effects of a test compound by similarity to major classes of compounds. It produces an activity signature indicating the probability that the activity of the test compound at the administered dose matches a given class of neuropharmacological agents. The test compound is simultaneously compared against multiple classes of agents; thus, a separate probability is generated for each behavioral effect measured (such as but not limited to anxiolytic activity and analgesic activity).
The compounds of the present disclosure were dissolved in a mixture of Pharmasolve™ (N-methyl-2-pyrrolidone (NMP)) and were injected i.p. 15 min. before the behavioral test. For each compound, injections were administered at different dose levels (e.g., 0.3, 1, 3, 10 and 30 mg per kg (mpk)). A compound's minimal effective dose (MED; see Table 3) is a measure of the compound's potency. The MED was defined as the dose (in mpk) having 50% or more total activity in SmartCube®. For each behavioral effect measured, results at the MED are presented. CNS activities of the compounds were recorded (see Table 2). In Table 1, a key to the percent probabilities (probability ×100) for each behavioral effect (“X”) are defined provided, where LOQ is the limit of quantification.

Row | SMILES | minimal effective dose [mg/kg] | AD: antidepressant (percent probability) | AG: analgesic (percent probability) | AP: antipsychotic (percent probability) | AX: anxiolytic (percent probability) | CE: cognitive enhancer (percent probability) | HA: hallucinogenic (percent probability) | MS: mood stabilizer (percent probability) | PS (percent probability) | SD: sedative hypnotic (percent probability) | SE: side effects (percent probability) | UN: uncharacterized CNS activity (percent probability) | XG: anxiogenic (percent probability)
1 | CC([C@@H](C)F)N1C2CCCC1c1ccccc12 (stereo in doubt) [Compound 23, 12-(3-Fluorobutan-2-yl)-12-azatricyclo[6.3.1.0^2,7]dodeca-2,4,6-triene hydrochloride] | > 30 | + (LOQ ≤ X < 5%) | + (LOQ ≤ X < 5%) | + (LOQ ≤ X < 5%) | + (LOQ ≤ X < 5%) | + (LOQ ≤ X < 5%) | + (LOQ ≤ X < 5%) | + (LOQ ≤ X < 5%) | + (LOQ ≤ X < 5%) | + (LOQ ≤ X < 5%) | + (LOQ ≤ X < 5%) | ++ (5% ≤ X < 25%) | + (LOQ ≤ X < 5%)
2 | CC([C@H](C)F)N1C2CCCC1c1ccccc12 (stereo in doubt) [Compound 24, 12-(3-Fluorobutan-2-yl)-12-azatricyclo[6.3.1.0^2,7]dodeca-2,4,6-triene hydrochloride] | 10 to 30 | +++ (25% ≤ X < 50%) | + (LOQ ≤ X < 5%) | + (LOQ ≤ X < 5%) | + (LOQ ≤ X < 5%) | + (LOQ ≤ X < 5%) | + (LOQ ≤ X < 5%) | + (LOQ ≤ X < 5%) | ++ (5% ≤ X < 25%) | + (LOQ ≤ X < 5%) | + (LOQ ≤ X < 5%) | + (LOQ ≤ X < 5%) | + (LOQ ≤ X < 5%)
3 | CO[C@H]1CC[C@H]2c3ccccc3[C@@H]1N2C(C)C (stereo in doubt) [Compound 28, 9-methoxy-12-(propan-2-yl)-12-azatricyclo[6.3.1.0^2,7]dodeca-2,4,6-triene hydrochloride] | 10 to 30 | ++ (5% ≤ X < 25%) | ++ (5% ≤ X < 25%) | + (LOQ ≤ X < 5%) | ++ (5% ≤ X < 25%) | + (LOQ ≤ X < 5%) | + (LOQ ≤ X < 5%) | + (LOQ ≤ X < 5%) | ++ (5% ≤ X < 25%) | + (LOQ ≤ X < 5%) | + (LOQ ≤ X < 5%) | +++ (25% ≤ X < 50%) | + (LOQ ≤ X < 5%)
4 | C[C@H]1CC[C@@H]2N[C@H]1c1ccccc12 (stereo in doubt) [Compound 32, 9-Methyl-12-azatricyclo[6.3.1.0^2,7]dodeca-2,4,6-triene hydrochloride] | 10 to 30 | + (LOQ ≤ X < 5%) | + (LOQ ≤ X < 5%) | + (LOQ ≤ X < 5%) | + (LOQ ≤ X < 5%) | + (LOQ ≤ X < 5%) | ++++ (50% ≤ X < 100%) | + (LOQ ≤ X < 5%) | ++ (5% ≤ X < 25%) | + (LOQ ≤ X < 5%) | + (LOQ ≤ X < 5%) | + (LOQ ≤ X < 5%) | + (LOQ ≤ X < 5%)
5 | CC(C)N1C2CC[C@H](C)C1c1ccccc12 (stereo in doubt) [Compound 33, 9-Methyl-12-(propan-2-yl)-12-azatricyclo[6.3.1.0^2,7]dodeca-2,4,6-triene hydrochloride] | 1 to 10 | ++++ (50% ≤ X < 100%) | + (LOQ ≤ X < 5%) | + (LOQ ≤ X < 5%) | + (LOQ ≤ X < 5%) | + (LOQ ≤ X < 5%) | + (LOQ ≤ X < 5%) | + (LOQ ≤ X < 5%) | + (LOQ ≤ X < 5%) | + (LOQ ≤ X < 5%) | + (LOQ ≤ X < 5%) | + (LOQ ≤ X < 5%) | + (LOQ ≤ X < 5%)
6 | CO[C@@H]1CC[C@H]2c3ccccc3[C@@H]1N2C(C)C (stereo in doubt) [Compound 34, 9-Methoxy-12-(propan-2-yl)-12-azatricyclo[6.3.1.0^2,7]dodeca-2,4,6-triene hydrochloride] | 10 to 30 | ++ (5% ≤ X < 25%) | + (LOQ ≤ X < 5%) | + (LOQ ≤ X < 5%) | ++ (5% ≤ X < 25%) | + (LOQ ≤ X < 5%) | + (LOQ ≤ X < 5%) | + (LOQ ≤ X < 5%) | + (LOQ ≤ X < 5%) | + (LOQ ≤ X < 5%) | + (LOQ ≤ X < 5%) | ++ (5% ≤ X < 25%) | + (LOQ ≤ X < 5%)
7 | c1ccc2c(c1)C1CCCC2N1 [Compound 1, 12-Azatricyclo[6.3.1.0^2,7]dodeca-2,4,6-triene] | 10 to 30 | ++ (5% ≤ X < 25%) | ++ (5% ≤ X < 25%) | + (LOQ ≤ X < 5%) | ++ (5% ≤ X < 25%) | +++ (25% ≤ X < 50%) | + (LOQ ≤ X < 5%) | + (LOQ ≤ X < 5%) | + (LOQ ≤ X < 5%) | + (LOQ ≤ X < 5%) | ++ (5% ≤ X < 25%) | + (LOQ ≤ X < 5%) | + (LOQ ≤ X < 5%)
8 | CC(C)N1C2CCCC1c1ccccc12 [Compound 2, 12-(Propan-2-yl)-12-azatricyclo[6.3.1.0^2,7]dodeca-2,4,6-triene] | 1 to 10 | ++ (5% ≤ X < 25%) | ++ (5% ≤ X < 25%) | + (LOQ ≤ X < 5%) | + (LOQ ≤ X < 5%) | + (LOQ ≤ X < 5%) | + (LOQ ≤ X < 5%) | + (LOQ ≤ X < 5%) | + (LOQ ≤ X < 5%) | + (LOQ ≤ X < 5%) | + (LOQ ≤ X < 5%) | +++ (25% ≤ X < 50%) | + (LOQ ≤ X < 5%)
